pIC50: −log10 of the molar value.
Columns and labels:
[1] = molecular target: esterase (purified microsome fraction of the liver of a rat); assay: Esterase inhibiting activity (hydrolysis of methyl butyrate); assay type: biochemical; conditions: methyl butyrate substrate, pH 8.0, 37° C., 60 minutes
Experimental: 1. Esterase Inhibiting Activity
A 10 micromole quantity of methyl butyrate in a 50% ethanol solution is added as a substrate to a specified amount of buffer solution (pH 8.0) containing 0.1 mole of trishydrochloric acid. To the mixture is further added a 50% ethanol solution of the compound of the invention, immediately followed by addition of an esterase solution prepared from a purified microsome fraction of the liver of a rat (adjusted to hydrolyze 9 micromoles of methyl butyrate at 37° C. in one hour). The mixture is reacted at 37° C. for 60 minutes.
After the reaction, alkaline hydroxylamine is added to the mixture to form a hydroxamic acid derivative of methyl butyrate, and a ferric salt is added to the derivative. The resulting red color is colorimetrically determined (at a wavelength of 540 nm) to determine the amount of remaining methyl butyrate. The esterase inhibiting ratios of the present compound at least at three concentrations are plotted as ordinate, and the logarithms of the concentrations as abscissa to obtain a line, which gives the 50% inhibition concentration (IC50).

Chymotripsin = Chymotripsin (Bos taurus, UniProt P00766); assay: Chymotripsin inhibiting activity (hydrolysis of ATEE); assay type: biochemical; conditions: 0.5 h; 1 × 10^-4 mol; 20 min preincubation, ATEE 30 min, 37° C., pH 8.0
Experimental: 2. Chymotripsin Inhibiting Activity
Chymotripsin (0.1 unit) serving as an enzyme solution is added to a specified quantity of buffer solution (pH 8.0) containing 0.1 mole of trishydrochloric acid. To the mixture is further added a 50% ethanol solution of the compound of the invention. The mixture is reacted at 37° C. for 20 minutes.
On completion of the reaction, 10 micromoles of […] (ATEE) serving as a substrate is added to the mixture, and the resulting mixture is reacted at 37° C. for 30 minutes.
After the completion of the reaction, the amount of remaining ATEE is determined by the same hydroxamic acid method as above. The percent chymotripsin inhibition is given by [formula] wherein A is the amount of hydrolzed esters in the reaction system not containing the compound of the invention, and B is the amount of hydrolyzed esters in the reaction system containing the present compound.

[2] = system: triglycerides content in the plasma; assay: Antilipemic effect: inhibition of olive oil-induced hyperlipidemia, plasma triglycerides; assay type: in vivo, male Wister rats; conditions: Rattus norvegicus, 100 mg compound in 5 ml olive oil, 5 ml/kg oral, 2 hours, read-out: Antilipemic effect IGI (%) (percent hyperlipidemia inhibition, triglycerides)
Experimental: Seven-week-old male Wister rats weighing 200 to 220 g are used, 5 rats in each group.
The compound of the invention (100 mg) is dissolved in 5 ml of olive oil. The olive oil containing the compound is orally given to the rat with a probe at a dose of 5 ml/kg. Two hours thereafter, 6 ml of whole blood is withdrawn from the descending aorta of the rat under ether anesthesia with a syringe containing heparin. The blood is centrifuged at 5° C. and 3000 r.p.m. to obtain the plasma. The plasma collected is used for determining the triglycerides content, using a triglycerides measuring kit (trade mark "Triglycerides-B Test Wako," product of Wako Junyaku Co., Ltd., Japan). Olive oil containing no compound is similarly given to a control group, while no treatment is conducted for a normal group. The triglycerides content in the plasma is also determined for these groups in the same manner as is the case with the test groups.
The percent hyperlipidemia inhibition achieved by the present compound is given by [formula] in which A is the triglycerides content of the control group, B is the triglycerides content of the normal group, and C is the triglycerides content of the group to which the present compound is given.

[3] = Acute toxicity, oral, one week; conditions: rat, in vivo, 5% gum arabic suspension
Text: Six-week-old male Wister rats weighing 180 to 200 g are used, 5 rats in each group. The present compound is suspended in a 5% aqueous solution of gum arabic, and the suspension is orally given to the rats. For one week after the start of the test, the rats are checked evey day for general toxicity symptoms, body weight and death to determine the LD50 value.

SMILES | pIC50 [1] | inhibition at 100 µM (Chymotripsin) | inhibition in vivo at 100 mg/kg [2] | LD50 at 168 h [3]
CC(CC1CCCCC1)C(=O)COS(=O)(=O)c1ccccc1 (stereo not shown) [Compound 1, 1-benzenesulfonyloxy-4-cyclohexyl-3-methyl-2-butanone] | 6.46 | 100% | 60% | > 2000 mg/kg
Cc1ccc(S(=O)(=O)OCC(=O)C(C)CC2CCCCC2)cc1 (stereo not shown) [Compound 2] | 5.11 | 90% | 50% | > 2000 mg/kg
COc1ccc(S(=O)(=O)OCC(=O)C(C)CC2CCCCC2)cc1 (stereo not shown) [Compound 3] | 5.40 | 93% | 63% | > 3000 mg/kg
CCOc1ccc(S(=O)(=O)OCC(=O)C(C)CC2CCCCC2)cc1 (stereo not shown) [Compound 4] | 4.64 | 78% | 52% | > 3000 mg/kg
CCC(CC1CCCCC1)C(=O)COS(=O)(=O)c1ccccc1 (stereo not shown) [Compound 5, 1-benzenesulfonyloxy-4-cyclohexyl-3-ethyl-2-butanone] | 5.33 | 12% | 80% | > 2000 mg/kg
CCC(CC1CCCCC1)C(=O)COS(=O)(=O)c1ccc(OC)cc1 (stereo not shown) [Compound 6] | – | – | 52% | > 3000 mg/kg
CCOc1ccc(S(=O)(=O)OCC(=O)C(CC)CC2CCCCC2)cc1 (stereo not shown) [Compound 7] | 3.70 | 13% | 71% | > 3000 mg/kg
CC(CC(=O)COS(=O)(=O)c1ccccc1)C1CCCCC1 (stereo not shown) [Compound 8] | 6.10 | 31% | 73% | > 3000 mg/kg
Cc1ccc(S(=O)(=O)OCC(=O)CC(C)C2CCCCC2)cc1 (stereo not shown) [Compound 9] | 5.38 | 31% | 70% | > 2000 mg/kg
COc1ccc(S(=O)(=O)OCC(=O)CC(C)C2CCCCC2)cc1 (stereo not shown) [Compound 10, 4-cyclohexyl-1-(4-methoxybenzenesulfonyloxy)2-pentanone] | 5.46 | 22% | 46% | > 3000 mg/kg
CCOc1ccc(S(=O)(=O)OCC(=O)CC(C)C2CCCCC2)cc1 (stereo not shown) [Compound 11] | 5.14 | 19% | 60% | > 3000 mg/kg
Cc1cc(C)c(S(=O)(=O)OCC(=O)CC(C)C2CCCCC2)c(C)c1 (stereo not shown) [Compound 12] | 6.00 | 24% | 39% | > 3000 mg/kg
CCC(C(=O)COS(=O)(=O)c1ccc(C)cc1)C1CCC(C)CC1 (stereo not shown) [Compound 13] | 4.70 | 50% | – | > 2000 mg/kg
CCOc1ccc(S(=O)(=O)OCC(=O)C(CC)C2CCC(C)CC2)cc1 (stereo not shown) [Compound 14] | 4.40 | 40% | 81% | > 3000 mg/kg
Cc1ccc(S(=O)(=O)OCC(=O)CC2CCC(C)CC2)cc1 (stereo not shown) [Compound 15, 1-(4-methylcyclohexyl)-3-(p-toluenesulfonyloxy)-2-propanone] | 5.85 | 94% | 85% | > 2000 mg/kg
CCOc1ccc(S(=O)(=O)OCC(=O)CC2CCC(C)CC2)cc1 (stereo not shown) [Compound 16] | 5.30 | 81% | 11% | > 3000 mg/kg
CC1CCCCC1CC(=O)COS(=O)(=O)c1ccccc1 (stereo not shown) [Compound 17, 1-benzenesulfonyloxy-3-(2-methylcyclohexyl)-2-propanone] | 7.49 | 97% | 72% | > 2000 mg/kg
Cc1ccc(S(=O)(=O)OCC(=O)CC2CCCCC2C)cc1 (stereo not shown) [Compound 18] | 5.08 | 72% | – | > 2000 mg/kg

SMILES | pIC50 [1] | inhibition at 100 µM (Chymotripsin) | inhibition in vivo at 100 mg/kg [2] | LD50 at 168 h [3]
CCOc1ccc(S(=O)(=O)OCC(=O)CC2CCCCC2C)cc1 (stereo not shown) [Compound 19] | 5.27 | 57% | 74% | > 3000 mg/kg
CC(C)C1CCC(CC(=O)COS(=O)(=O)c2ccccc2)CC1 (stereo not shown) [Compound 21] | 5.22 | 94% | 70% | > 3000 mg/kg
CCC1CCC(C(=O)COS(=O)(=O)c2ccccc2)CC1 (stereo not shown) [Compound 22] | 6.70 | 58% | 59% | > 2000 mg/kg
CCOc1ccc(S(=O)(=O)OCC(=O)C2CCC(CC)CC2)cc1 (stereo not shown) [Compound 23] | 5.85 | 24% | 67% | > 3000 mg/kg
CC(C)[C@H]1CC[C@@H](C(=O)COS(=O)(=O)c2ccccc2)CC1 [Compound 24] | 6.15 | 16% | 60% | > 3000 mg/kg
CC(C)[C@H]1CC[C@H](C(=O)COS(=O)(=O)c2ccccc2)CC1 [Compound 25, trans-2-(benzene-sulfonyloxy)-1-(4-isopropylcyclohexyl)-1-ethanone] | 7.19 | 62% | 90% | > 3000 mg/kg
CCOc1ccc(S(=O)(=O)OCC(=O)[C@H]2CC[C@@H](C(C)C)CC2)cc1 [Compound 26] | 4.96 | 14% | 50% | > 3000 mg/kg
CCOc1ccc(S(=O)(=O)OCC(=O)[C@H]2CC[C@H](C(C)C)CC2)cc1 [Compound 27] | 5.70 | 35% | 76% | > 3000 mg/kg
Cc1cc(C)c(S(=O)(=O)OCC(=O)[C@H]2CC[C@@H](C(C)C)CC2)c(C)c1 [Compound 28] | 5.92 | – | – | > 3000 mg/kg
Cc1cc(C)c(S(=O)(=O)OCC(=O)[C@H]2CC[C@H](C(C)C)CC2)c(C)c1 [Compound 29] | 6.89 | – | – | > 3000 mg/kg
CC(C)C[C@H]1CC[C@@H](C(=O)COS(=O)(=O)c2ccccc2)CC1 [Compound 30] | 5.40 | 30% | 57% | > 3000 mg/kg
CC(C)C[C@H]1CC[C@H](C(=O)COS(=O)(=O)c2ccccc2)CC1 [Compound 31] | 5.80 | 43% | 79% | > 3000 mg/kg
CCC(C)[C@H]1CC[C@@H](C(=O)COS(=O)(=O)c2ccccc2)CC1 (stereo partly shown) [Compound 32] | 6.25 | 13% | 61% | > 3000 mg/kg
CCC(C)[C@H]1CC[C@H](C(=O)COS(=O)(=O)c2ccccc2)CC1 (stereo partly shown) [Compound 33] | 6.77 | 19% | 76% | > 3000 mg/kg
CC(C)(C)[C@H]1CC[C@@H](C(=O)COS(=O)(=O)c2ccccc2)CC1 [Compound 34] | 5.34 | – | 52% | > 3000 mg/kg
CC(C)(C)[C@H]1CC[C@H](C(=O)COS(=O)(=O)c2ccccc2)CC1 [Compound 35] | 5.34 | – | 72% | > 3000 mg/kg
Cc1ccc(S(=O)(=O)OCC(=O)[C@H]2CC[C@@H](C(C)(C)C)CC2)cc1 [Compound 36] | 4.07 | 44% | 52% | > 3000 mg/kg

From patent US4452813A, “Sulfonate derivatives, process for preparing same and antilipemic compositions containing the derivative” (Taiho Pharmaceutical Company Limited, priority 1981, dated 1984)
